# Patent US20160374944A1, “COMPOSITIONS AND METHODS FOR TREATING AND PREVENTING CANCER BY TARGETING AND INHIBITING CANCER STEM CELLS” (priority 2011, published 2016)
# Legend:
# Pancreatic CSCs [1] = experiment: spheroid formation and cell viability in spheroids (trypan blue); assay type: cell-based, human; conditions: SFN 0-10 μM with or without quercetin 20 μM, 7 days
# [2] = system: human pancreatic cancer cells
# Brain CSCs = experiment: cell viability by XTT assay; assay type: cell-based; conditions: 3 days; 0-20 μM
# Description: (A-B) Brain CSCs were treated with sulforaphane (0-20 μM), and honokiol (0-20 μM) for 3 days, and cell viability was measured by XTT assay.
# Pancreatic CSCs [3] = experiment: gene expression by qRT-PCR; assay type: cell-based, human
# Description: FIG. 19 is a graph showing the regulation by rottlerin of cMyc, Nanog, Oct-4, and Sox-2 in pancreatic CSCs. Pancreatic CSCs were treated with rottlerin (0-1 μM) for 24 h. The expression of Nanog, Sox-2 and cMyc was measured by qRT-PCR and normalized to GAPDH.
# (A) Pancreatic CSCs were treated with rottlerin (0-1 μM) for 24 h. The expression of Patched-1, Smo and Gli-2 was measured by qRT-PCR. […] (B) Pancreatic CSCs were transduced with Gli-responsive GFP/firefly luciferase viral particles (pGreen Fire1-Gli with EF1, System Biosciences). After transduction, culture medium was replaced and CSCs were treated with rottlerin (0-2 μM) for 24 h. Gli-responsive reporter activity was measured using a luciferase assay (Promega Corporation).
# (A and B) Induction of apoptosis and activation of caspase-3/-7. Pancreatic CSCs were treated with rottlerin (0-2 μM) for 48 h, and apoptosis and caspase-3/-7 activity were measured by […] and colorometric assay, respectively. […] (C) Pancreatic CSCs were treated with rottlerin (0-1 μM) for 48 h, and the expression of Bcl-2, XIAP and Survivin was measured by qRT-PCR and normalized to GAPDH.
# (A and B) Pancreatic CSCs were treated with rottlerin (0-1 μM) for 24 h. The expression of Zeb-1 and Slug was measured by the qRT-PCR and normalized to GAPDH. […] (C) In vitro Matrigel invasion assay. CSCs were plated onto the Matrigel-coated membrane in the top chamber of the transwell and treated with rottlerin (0-2 μM) for 48 h. Cells invaded to the lower chamber were fixed with methanol, stained with crystal violet and photo micrographed.
# (A) Regulation of caspase-3/7 activity by EGCG. CSCs were treated with EGCG (0-60 μM) for 24 h, and caspase-3/7 activity was measured as per manufacturer's instructions. […] (B) Regulation of apoptosis by EGCG. CSCs were treated with EGCG (0-60 μM) for 48 h, and apoptosis was measured by TUNEL assay. […] (C) Regulation of apoptosis-related proteins. Pancreatic CSCs were treated with EGCG (0-60 μM) for 36 h. Real time PCR (q-RT-PCR) was performed to examine the expression of Bcl-2, survivin, XIAP, and GAPDH.
# […] At the end of incubation period, cells were harvested and the expression of Nanog, Sox-2, c-Myc and Oct-4 was measured by the q-RT-PCR. […] (B) Nanog shRNA enhances the inhibitory effects of EGCG on CSC's spheroid viability. Pancreatic CSCs were transduced with either scrambled shRNA or Nanog shRNA expressing lentiviral vector (pLKO.1), and cell lysates were collected and western blot analysis was performed using anti-Nanog antibody (data not shown). CSC/scrambled and CSC/Nanog shRNA were seeded as described above and treated with EGCG (0-60 μM). After 7 days, spheroids were collected and cell suspensions were prepared and viable cells were counted by trypan blue assay.
# FIG. 40A and FIG. 40C are graphs and photographs showing the inhibition of components of sonic hedgehog pathway, Gli transcription and nuclear translocation by EGCG. (A) Inhibition of components of sonic hedgehog pathway and Gli transcription. Pancreatic CSCs were treated with EGCG (0-60 μM) for 36 h. The expression of Smothened (Smo), patched 1 (PTCH1), patched 2 (PTCH2), was measured by q-RT-PCR. […] (B) Inhibition of Gli1 and Gli2 expression and Gli transcription. Pancreatic CSCs were treated with EGCG (0-60 μM) for 36 h. The expression of Gli1 and Gli2 was measured by q-RT-PCR. Gli reporter activity. CSCs were transduced with Gli-responsive GFP/firefly luciferase viral particles (pGreen Fire1-Gli with EF1, System Biosciences). After transduction, culture medium was replaced and CSCs were treated with EGCG (0-60 μM) for 24 h. Gli-responsive reporter activity was measured by luciferase assay (Promega Corporation). […] (C) EGCG inhibits nuclear translocation of Gli1 and Gli2. Pancreatic CSCs were treated with or without EGCG (40 or 60 μM) for 24 h. At the end of incubation period, CSCs were fixed with paraformaldehyde, permeabilized with titron X100, and blocked with 5% normal goat serum. […]
# Prostate CSCs [4] = experiment: apoptosis; assay type: cell-based, human; conditions: embelin 0-6 μM 48 h; rottlerin 0-2 μM 24 h
# Description: (§1) In particular, embelin is shown to inhibit spheroid and colony formation, and induce caspase-3 and apoptosis. (A) Prostate CSCs were grown in CSC medium and treated with embelin (0-6 μM) for 7 days to obtain primary spheroids. At the end of incubation period, spheroids were collected, reseeded and treated with embelin for another week to obtain secondary spheroids. Cell viability in spheroids was measured by trypan blue assay at the end of 7 and 14 days. […] (B) Prostate CSCs were seeded in soft agar and treated with embelin (0-6 μM) for 21 days. […] (C and D) Activation of caspase-3 and induction of apoptosis is shown.
# as §1, with “(A)” for “In particular, embelin is shown to inhibit spheroid and colony formation, and induce caspase-3 and apoptosis. (A)”, “rottlerin (0-2” for “embelin (0-6”, “rottlerin” for “embelin”, “apoptosis.” for “apoptosis is shown.”
# Prostate CSCs [5] = experiment: prostate CSCs xenografted sub-cutaneously in NSG mice; assay type: in vivo; conditions: NOD/SCID/IL2R gamma mice, 20 mg/kg, 6 weeks
# Description: (A) Pancreatic CSCs were orthotopically implanted in pancreas of NSG mice, and treated with or without sulforaphane 20 mg/kg, for 6 weeks, (B and C) Pancreatic CSCs were xenografted sub-cutaneously in NSG mice, and treated with or without rottlerin and embelin 20 mg/kg, for 6 weeks, (D and E) Prostate CSCs were xenografted sub-cutaneously in NSG mice, and treated with or without rottlerin and embelin 20 mg/kg, for 6 weeks. At the end of the treatment, weights of tumors in treated mice were compared with control mice.
# [6] = qRT-PCR, rottlerin 0-1 μM, 24 h
# [7] = qRT-PCR, rottlerin 0-1 μM, 48 h
smiles,measurement,setting,value
C[S+]([O-])CCCCN=C=S (centres unmarked) [sulforaphane],cell viability in spheroids,Pancreatic CSCs [1],inhibited the cell viability and colony formation of pancreatic CSCs in a dose-dependent manner
same,growth of human pancreatic cancer cells,[2],inhibits the growth
same,cell viability,Brain CSCs,inhibit cell viability
O=c1c(O)c(-c2ccc(O)c(O)c2)oc2cc(O)cc(O)c12 [quercetin],cell viability in spheroids,Pancreatic CSCs [1],effective alone
"O=C(O[C@@H]1Cc2c(O)cc(O)cc2O[C@@H]1c1cc(O)c(O)c(O)c1)c1cc(O)c(O)c(O)c1 [EGCG, epigallocatechin gallate]",expression of Bcl-2,"Pancreatic CSCs [3]; q-RT-PCR, EGCG 0-60 μM, 36 h",inhibited the expression
same,expression of Gli1,"Pancreatic CSCs [3]; q-RT-PCR, EGCG 0-60 μM, 36 h",inhibited the expression
same,expression of Gli2,"Pancreatic CSCs [3]; q-RT-PCR, EGCG 0-60 μM, 36 h",inhibited the expression
same,expression of Nanog,"Pancreatic CSCs [3]; q-RT-PCR, EGCG 0-60 μM, 36 h",inhibited the expression
same,expression of Oct-4,"Pancreatic CSCs [3]; q-RT-PCR, EGCG 0-60 μM, 36 h",inhibited the expression
same,expression of Patched-1,"Pancreatic CSCs [3]; q-RT-PCR, EGCG 0-60 μM, 36 h",inhibited the expression
same,expression of Patched-2,"Pancreatic CSCs [3]; q-RT-PCR, EGCG 0-60 μM, 36 h",inhibited the expression
same,expression of Sox-2,"Pancreatic CSCs [3]; q-RT-PCR, EGCG 0-60 μM, 36 h",no effect on the expression
same,expression of XIAP,"Pancreatic CSCs [3]; q-RT-PCR, EGCG 0-60 μM, 36 h",inhibited the expression
same,expression of c-Myc,"Pancreatic CSCs [3]; q-RT-PCR, EGCG 0-60 μM, 36 h",inhibited the expression
same,expression of smoothened (SMO),"Pancreatic CSCs [3]; q-RT-PCR, EGCG 0-60 μM, 36 h",inhibited the expression
same,expression of survivin,"Pancreatic CSCs [3]; q-RT-PCR, EGCG 0-60 μM, 36 h",inhibited the expression
same,expression of Slug,"Pancreatic CSCs [3]; q-RT-PCR, EGCG 0-60 μM, 48 h",inhibited the expression
same,expression of Snail,"Pancreatic CSCs [3]; q-RT-PCR, EGCG 0-60 μM, 48 h",inhibited the expression
same,expression of ZEB1,"Pancreatic CSCs [3]; q-RT-PCR, EGCG 0-60 μM, 48 h",inhibited the expression
CC(=O)c1c(O)c(C)c(O)c(Cc2c(O)c3c(c(C(=O)/C=C/c4ccccc4)c2O)OC(C)(C)C=C3)c1O [rottlerin],apoptosis,Prostate CSCs [4],induces
same,tumor growth (weights of tumors vs control mice),Prostate CSCs [5],inhibit tumor growth
same,expression of Gli2,Pancreatic CSCs [3]; [6],inhibited the expression
same,expression of Nanog,Pancreatic CSCs [3]; [6],inhibited the expression
same,expression of Patched-1,Pancreatic CSCs [3]; [6],inhibited the expression
same,expression of Slug,Pancreatic CSCs [3]; [6],inhibited the expression
same,expression of Smo,Pancreatic CSCs [3]; [6],inhibited the expression
same,expression of Sox-2,Pancreatic CSCs [3]; [6],inhibited the expression
same,expression of Zeb-1,Pancreatic CSCs [3]; [6],inhibited the expression
same,expression of cMyc,Pancreatic CSCs [3]; [6],inhibited the expression
same,expression of Bcl-2,Pancreatic CSCs [3]; [7],inhibited the expression
same,expression of XIAP,Pancreatic CSCs [3]; [7],inhibited the expression
same,expression of survivin,Pancreatic CSCs [3]; [7],inhibited the expression
